Literature values as cited in EP2322149A1, “Methods and compositions for the treatment of ischemia” (Universidad del Pais Vasco, priority 2009, dated 2011).

How the values were obtained:
P2X4 = target: T1, P2X4 (Homo sapiens, UniProt Q99571); conditions: read-out: IC50 P2X4; cited from earlier work
T1 sequence (Q99571 1-388): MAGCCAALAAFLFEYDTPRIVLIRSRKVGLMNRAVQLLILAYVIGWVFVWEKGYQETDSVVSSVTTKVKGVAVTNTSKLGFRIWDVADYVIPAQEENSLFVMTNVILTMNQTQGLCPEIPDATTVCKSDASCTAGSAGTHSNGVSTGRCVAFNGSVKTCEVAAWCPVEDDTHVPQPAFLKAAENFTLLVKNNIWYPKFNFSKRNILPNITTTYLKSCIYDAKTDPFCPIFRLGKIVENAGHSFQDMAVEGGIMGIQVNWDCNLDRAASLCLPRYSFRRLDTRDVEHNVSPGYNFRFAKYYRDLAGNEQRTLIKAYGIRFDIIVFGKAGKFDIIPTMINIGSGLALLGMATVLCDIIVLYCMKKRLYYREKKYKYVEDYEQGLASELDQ

P2X7 = target: T2, P2X7 (Homo sapiens, UniProt Q99572); conditions: cited from earlier work
T2 sequence (Q99572 1-595): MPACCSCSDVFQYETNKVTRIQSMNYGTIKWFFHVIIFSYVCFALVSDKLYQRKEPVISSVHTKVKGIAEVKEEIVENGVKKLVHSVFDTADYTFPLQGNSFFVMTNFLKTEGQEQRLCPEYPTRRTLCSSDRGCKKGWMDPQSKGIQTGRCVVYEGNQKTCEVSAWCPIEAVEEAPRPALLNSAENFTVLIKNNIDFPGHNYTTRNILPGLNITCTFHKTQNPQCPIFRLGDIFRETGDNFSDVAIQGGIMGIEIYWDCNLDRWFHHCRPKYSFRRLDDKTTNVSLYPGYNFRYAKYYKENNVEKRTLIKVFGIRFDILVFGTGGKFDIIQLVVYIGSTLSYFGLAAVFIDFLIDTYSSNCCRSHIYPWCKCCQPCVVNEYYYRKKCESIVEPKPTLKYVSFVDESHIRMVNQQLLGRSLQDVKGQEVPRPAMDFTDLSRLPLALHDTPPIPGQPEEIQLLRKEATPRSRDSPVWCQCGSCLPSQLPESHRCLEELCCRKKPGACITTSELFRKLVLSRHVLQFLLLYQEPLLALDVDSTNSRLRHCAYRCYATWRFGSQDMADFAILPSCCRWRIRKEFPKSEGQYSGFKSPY

P2X3 = target: T3, P2X3 (Homo sapiens, UniProt P56373); conditions: read-out: IC50 P2X3; cited from earlier work
T3 sequence (P56373 1-397): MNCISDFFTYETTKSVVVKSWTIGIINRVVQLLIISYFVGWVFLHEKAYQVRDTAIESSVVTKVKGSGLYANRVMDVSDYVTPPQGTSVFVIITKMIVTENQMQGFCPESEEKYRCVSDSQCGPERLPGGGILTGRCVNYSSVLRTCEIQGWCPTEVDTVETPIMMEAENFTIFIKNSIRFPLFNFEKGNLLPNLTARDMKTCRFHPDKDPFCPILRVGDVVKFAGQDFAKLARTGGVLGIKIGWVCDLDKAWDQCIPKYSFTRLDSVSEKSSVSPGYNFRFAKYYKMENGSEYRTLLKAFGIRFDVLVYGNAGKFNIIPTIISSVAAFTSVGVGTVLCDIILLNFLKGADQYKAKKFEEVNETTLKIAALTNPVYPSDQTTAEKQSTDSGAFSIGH

P2X5 = P2X5 (Homo sapiens, UniProt Q93086); conditions: cited from earlier work
P2X5, sequence (Q93086 whole entry, species assumed): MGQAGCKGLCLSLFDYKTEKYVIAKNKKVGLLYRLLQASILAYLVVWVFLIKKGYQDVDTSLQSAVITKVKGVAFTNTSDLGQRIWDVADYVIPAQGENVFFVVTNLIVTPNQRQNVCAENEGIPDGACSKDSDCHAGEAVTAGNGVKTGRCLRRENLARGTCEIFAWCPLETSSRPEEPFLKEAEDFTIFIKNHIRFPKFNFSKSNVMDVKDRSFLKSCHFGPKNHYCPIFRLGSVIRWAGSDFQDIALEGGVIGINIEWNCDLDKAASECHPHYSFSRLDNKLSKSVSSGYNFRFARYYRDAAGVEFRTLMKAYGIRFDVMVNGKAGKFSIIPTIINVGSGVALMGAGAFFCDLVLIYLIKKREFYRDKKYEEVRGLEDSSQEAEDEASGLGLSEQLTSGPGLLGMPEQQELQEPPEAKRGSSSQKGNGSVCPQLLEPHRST

P2X2 = target: T4, P2X2 (Homo sapiens, UniProt Q9UBL9); conditions: read-out: IC50 P2X2; cited from earlier work
T4 sequence (Q9UBL9 1-471): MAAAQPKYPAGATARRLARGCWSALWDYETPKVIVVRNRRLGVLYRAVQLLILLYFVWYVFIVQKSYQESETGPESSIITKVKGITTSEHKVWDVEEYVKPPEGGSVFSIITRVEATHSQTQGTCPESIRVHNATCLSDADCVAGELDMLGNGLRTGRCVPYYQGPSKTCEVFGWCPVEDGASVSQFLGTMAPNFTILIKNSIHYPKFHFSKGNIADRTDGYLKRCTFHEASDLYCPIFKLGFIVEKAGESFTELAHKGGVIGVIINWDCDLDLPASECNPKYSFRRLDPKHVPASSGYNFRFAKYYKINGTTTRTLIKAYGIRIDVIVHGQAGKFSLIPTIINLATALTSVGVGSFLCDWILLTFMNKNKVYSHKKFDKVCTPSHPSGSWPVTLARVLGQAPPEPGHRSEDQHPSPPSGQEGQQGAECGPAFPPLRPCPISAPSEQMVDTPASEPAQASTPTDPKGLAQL

P2X6 = P2X6 (Homo sapiens, UniProt O15547); conditions: read-out: IC50 P2X6; cited from earlier work
P2X6, sequence (O15547 whole entry, species assumed): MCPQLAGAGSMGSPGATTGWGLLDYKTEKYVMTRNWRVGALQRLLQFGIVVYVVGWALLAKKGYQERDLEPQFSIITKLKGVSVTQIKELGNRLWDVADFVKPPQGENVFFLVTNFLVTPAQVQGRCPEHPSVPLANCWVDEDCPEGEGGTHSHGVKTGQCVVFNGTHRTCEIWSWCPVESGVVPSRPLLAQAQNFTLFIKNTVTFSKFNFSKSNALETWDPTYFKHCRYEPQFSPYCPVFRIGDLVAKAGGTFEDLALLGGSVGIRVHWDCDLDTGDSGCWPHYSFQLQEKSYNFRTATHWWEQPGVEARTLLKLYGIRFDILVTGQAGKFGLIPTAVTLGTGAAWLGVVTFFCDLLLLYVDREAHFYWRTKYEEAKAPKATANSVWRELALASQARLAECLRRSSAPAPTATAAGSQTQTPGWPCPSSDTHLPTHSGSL

P2X1 = target: T5, P2X1 (Homo sapiens, UniProt P51575); conditions: read-out: IC50 P2X1; cited from earlier work
T5 sequence (P51575 1-399): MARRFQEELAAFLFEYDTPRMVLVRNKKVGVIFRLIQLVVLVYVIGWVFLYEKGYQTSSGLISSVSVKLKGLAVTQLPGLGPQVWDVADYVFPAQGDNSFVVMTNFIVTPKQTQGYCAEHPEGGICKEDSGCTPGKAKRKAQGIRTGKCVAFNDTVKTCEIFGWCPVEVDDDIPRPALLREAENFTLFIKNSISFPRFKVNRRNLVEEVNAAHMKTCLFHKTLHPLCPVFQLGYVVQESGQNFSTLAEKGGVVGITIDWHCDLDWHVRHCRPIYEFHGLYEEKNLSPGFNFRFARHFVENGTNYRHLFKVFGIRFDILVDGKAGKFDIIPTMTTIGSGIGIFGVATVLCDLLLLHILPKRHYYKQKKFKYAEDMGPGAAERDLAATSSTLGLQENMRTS

SMILES: Cc1cc(-c2ccc(/N=N/c3ccc4c(S(=O)(=O)O)cc(S(=O)(=O)O)c(N)c4c3O)c(C)c2)ccc1/N=N/c1ccc2c(S(=O)(=O)O)cc(S(=O)(=O)O)c(N)c2c1O [Evans Blue]
- IC50 (P2X4): 1 to 400 µM
- IC50 (P2X7): 1 to 400 µM
- IC50 (P2X3): 1400 µM
- IC50 (P2X5): 1 to 400 µM
- IC50 (P2X2): 1 to 400 µM
- IC50 (P2X6): 1 to 400 µM
- IC50 (P2X1): 1400 µM
